Experimental data: patent publication US11498899B2, “Nitrone herbicides” (FMC Corporation, priority 2016, dated 2022)

How the values were obtained:
[1] = test system: barnyardgrass (Echinochloa crus-galli); assay: Test A preemergence, visual injury rating 0-100 (0 no effect, 100 complete control); type: in vivo
[2] = test system: foxtail, giant (giant foxtail, Setaria faberii); assay: Test A preemergence, visual injury rating 0-100; type: in vivo
[3] = test system: kochia (Kochia scoparia); assay: Test A preemergence, visual injury rating 0-100; type: in vivo
[4] = test system: pigweed (Amaranthus retroflexus); assay: Test A preemergence, visual injury rating 0-100; type: in vivo
[5] = test system: ragweed (common ragweed, Ambrosia elatior); assay: Test A preemergence, visual injury rating 0-100; type: in vivo
[6] = test system: ryegrass, Italian (Italian ryegrass, Lolium multiflorum); assay: Test A preemergence, visual injury rating 0-100; type: in vivo
[7] = test system: barnyardgrass (Echinochloa crus-galli); assay: Test A postemergence, visual injury rating 0-100; type: in vivo; settings: 0 to 100 scale
[8] = test system: blackgrass (Alopecurus myosuroides); assay: Test A postemergence, visual injury rating 0-100; type: in vivo; settings: 0 to 100 scale
[9] = test system: corn (Zea mays); assay: Test A postemergence, visual injury rating 0-100; type: in vivo; settings: 0 to 100 scale
[10] = test system: foxtail, giant (giant foxtail, Setaria faberii); assay: Test A postemergence, visual injury rating 0-100; type: in vivo; settings: 0 to 100 scale
[11] = test system: galium (catchweed bedstraw, Galium aparine); assay: Test A postemergence, visual injury rating 0-100; type: in vivo; settings: 0 to 100 scale
[12] = test system: kochia (Kochia scoparia); assay: Test A postemergence, visual injury rating 0-100; type: in vivo; settings: 0 to 100 scale
[13] = test system: pigweed (Amaranthus retroflexus); assay: Test A postemergence, visual injury rating 0-100; type: in vivo; settings: 0 to 100 scale
[14] = test system: ragweed (common ragweed, Ambrosia elatior); assay: Test A postemergence, visual injury rating 0-100; type: in vivo; settings: 0 to 100 scale
[15] = test system: ryegrass, Italian (Italian ryegrass, Lolium multiflorum); assay: Test A postemergence, visual injury rating 0-100; type: in vivo; settings: 0 to 100 scale
[16] = test system: wheat (Triticum aestivum); assay: Test A postemergence, visual injury rating 0-100; type: in vivo; settings: 0 to 100 scale
[17] = test system: ducksalad (Heteranthera limosa); assay: Test B flooded paddy test, visual rating 0-100; settings: Flood, 250 g ai/ha, applied to paddy water, rated after 13 to 15 days
[18] = test system: barnyardgrass (Echinochloa crus-galli); assay: Test B flooded paddy test, visual rating 0-100; settings: Flood, 250 g ai/ha, applied to paddy water, rated after 13 to 15 days
[19] = test system: rice (Oryza sativa); assay: Test B flooded paddy test, visual rating 0-100 (0 no effect, 100 complete control); settings: Flood, 250 g ai/ha, applied to paddy water, rated after 13 to 15 days

Compound | Barnyardgrass plant response rating (0 to 100 scale) ([1]; 125 g ai/ha) | Barnyardgrass plant response rating (0 to 100 scale) ([1]; 500 g ai/ha) | Foxtail, Giant plant response rating (0 to 100 scale) ([2]; 125 g ai/ha) | Foxtail, Giant plant response rating (0 to 100 scale) ([2]; 500 g ai/ha) | Kochia plant response rating (0 to 100 scale) ([3]; 125 g ai/ha) | Kochia plant response rating (0 to 100 scale) ([3]; 500 g ai/ha) | Pigweed plant response rating (0 to 100 scale) ([4]; 125 g ai/ha) | Pigweed plant response rating (0 to 100 scale) ([4]; 500 g ai/ha) | Ragweed plant response rating (0 to 100 scale) ([5]; 125 g ai/ha) | Ragweed plant response rating (0 to 100 scale) ([5]; 500 g ai/ha) | Ryegrass, Italian plant response rating (0 to 100 scale) ([6]; 125 g ai/ha) | Ryegrass, Italian plant response rating (0 to 100 scale) ([6]; 500 g ai/ha) | Barnyardgrass plant response rating ([7]; 125 g ai/ha) | Barnyardgrass plant response rating ([7]; 500 g ai/ha) | Blackgrass plant response rating ([8]; 125 g ai/ha) | Blackgrass plant response rating ([8]; 500 g ai/ha) | Corn plant response rating ([9]; 125 g ai/ha) | Corn plant response rating ([9]; 500 g ai/ha) | Foxtail, Giant plant response rating ([10]; 125 g ai/ha) | Foxtail, Giant plant response rating ([10]; 500 g ai/ha) | further results
COc1cccc(C2CC(C)=[N+]([O-])C2C(=O)Nc2cccc(F)c2F)n1 (racemic) [Compound 67] | 0 | 70 | 0 | 60 | 0 | 0 | 0 | 0 | 0 | 0 | 0 | 0 | 0 | 0 | 0 | 0 | 0 | 0 | 0 | 10 | Galium plant response rating ([11]; 125 g ai/ha): 0; Galium plant response rating ([11]; 500 g ai/ha): 0; Kochia plant response rating ([12]; 125 g ai/ha): 0; Kochia plant response rating ([12]; 500 g ai/ha): 0; Pigweed plant response rating ([13]; 125 g ai/ha): 0; Pigweed plant response rating ([13]; 500 g ai/ha): 0; Ragweed plant response rating ([14]; 125 g ai/ha): 0; Ragweed plant response rating ([14]; 500 g ai/ha): 0; Ryegrass, Italian plant response rating ([15]; 125 g ai/ha): 0; Ryegrass, Italian plant response rating ([15]; 500 g ai/ha): 0; Wheat plant response rating ([16]; 125 g ai/ha): 0; Wheat plant response rating ([16]; 500 g ai/ha): 0; Ducksalad plant response rating (0 to 100 scale) [17]: 65; Barnyardgrass plant response rating (0 to 100 scale) [18]: 15; Rice plant response rating (0 to 100 scale) [19]: 15
CC1=[N+]([O-])C(C(=O)Nc2cccc(F)c2F)C(c2ccc(F)cc2Oc2ncc(F)cn2)C1 (racemic) [Compound 68] | 20 | 100 | 50 | 100 | 0 | 30 | 0 | 0 | 0 | 70 | 20 | 90 | 0 | 40 | 70 | 70 | 20 | 90 | 0 | 90 | Galium plant response rating ([11]; 125 g ai/ha): 30; Galium plant response rating ([11]; 500 g ai/ha): 40; Kochia plant response rating ([12]; 125 g ai/ha): 0; Kochia plant response rating ([12]; 500 g ai/ha): 30; Pigweed plant response rating ([13]; 125 g ai/ha): 0; Pigweed plant response rating ([13]; 500 g ai/ha): 30; Ragweed plant response rating ([14]; 125 g ai/ha): 0; Ragweed plant response rating ([14]; 500 g ai/ha): 0; Ryegrass, Italian plant response rating ([15]; 125 g ai/ha): 20; Ryegrass, Italian plant response rating ([15]; 500 g ai/ha): 90; Wheat plant response rating ([16]; 125 g ai/ha): 30; Wheat plant response rating ([16]; 500 g ai/ha): 80; Ducksalad plant response rating (0 to 100 scale) [17]: 0; Barnyardgrass plant response rating (0 to 100 scale) [18]: 0; Rice plant response rating (0 to 100 scale) [19]: 0
CC1=[N+]([O-])C(C(=O)Nc2cccc(F)c2F)C(c2ccc(C)c(Br)c2)C1 (racemic) [Compound 71] | 90 | 90 | 80 | 90 | 10 | 80 | 0 | 40 | 0 | 60 | 30 | 90 | 80 | 90 | 40 | 70 | 70 | 90 | 40 | 60 | Galium plant response rating ([11]; 125 g ai/ha): 30; Galium plant response rating ([11]; 500 g ai/ha): 50; Kochia plant response rating ([12]; 125 g ai/ha): 10; Kochia plant response rating ([12]; 500 g ai/ha): 50; Pigweed plant response rating ([13]; 125 g ai/ha): 20; Pigweed plant response rating ([13]; 500 g ai/ha): 10; Ragweed plant response rating ([14]; 125 g ai/ha): 0; Ragweed plant response rating ([14]; 500 g ai/ha): 50; Ryegrass, Italian plant response rating ([15]; 125 g ai/ha): 60; Ryegrass, Italian plant response rating ([15]; 500 g ai/ha): 80; Wheat plant response rating ([16]; 125 g ai/ha): 20; Wheat plant response rating ([16]; 500 g ai/ha): 70; Ducksalad plant response rating (0 to 100 scale) [17]: 0; Barnyardgrass plant response rating (0 to 100 scale) [18]: 0; Rice plant response rating (0 to 100 scale) [19]: 0
CC1=[N+]([O-])C(C(=O)Nc2cccc(F)c2F)C(c2ccc(C)c(Cl)c2)C1 (racemic) [Compound 72] | 80 | 90 | 90 | 90 | 20 | 80 | 30 | 30 | 20 | 90 | 30 | 90 | 90 | 90 | 60 | 70 | 40 | 70 | 50 | 80 | Galium plant response rating ([11]; 125 g ai/ha): 50; Galium plant response rating ([11]; 500 g ai/ha): 50; Kochia plant response rating ([12]; 125 g ai/ha): 0; Kochia plant response rating ([12]; 500 g ai/ha): 40; Pigweed plant response rating ([13]; 125 g ai/ha): 10; Pigweed plant response rating ([13]; 500 g ai/ha): 30; Ragweed plant response rating ([14]; 125 g ai/ha): 0; Ragweed plant response rating ([14]; 500 g ai/ha): 50; Ryegrass, Italian plant response rating ([15]; 125 g ai/ha): 30; Ryegrass, Italian plant response rating ([15]; 500 g ai/ha): 70; Wheat plant response rating ([16]; 125 g ai/ha): 30; Wheat plant response rating ([16]; 500 g ai/ha): 80; Ducksalad plant response rating (0 to 100 scale) [17]: 15; Barnyardgrass plant response rating (0 to 100 scale) [18]: 40; Rice plant response rating (0 to 100 scale) [19]: 0
